Values of other authors in US20070203026A1, “Methods for controlling bermudagrass, bermudagrass hybrids and other weedy monocot and dicot species” (TurfEcosystems, LLC, priority 2006, published 2007).

Key:
seashore paspalum = conditions: ocean level chlorides
bermudagrass = conditions: saturated soil paste extract data
perennial ryegrass = conditions: saturated soil paste extract data
crested wheatgrass = conditions: saturated soil paste extract data
[1] = tested on: fairway crested wheatgrass; conditions: saturated soil paste extract data
tall fescue = conditions: saturated soil paste extract data

SMILES: Cl [chloride]
- chlorides withstood (salinity tolerance) (seashore paspalum): ~19,000 ppm
- maximum soil chloride concentration threshold (bermudagrass): about 2450 ppm
- maximum soil chloride concentration threshold (perennial ryegrass): about 1025 ppm
- maximum soil chloride concentration threshold (crested wheatgrass): about 1050 ppm
- maximum soil chloride concentration threshold [1]: about 2625 ppm
- maximum soil chloride concentration threshold (tall fescue): about 1400 ppm
